For assay [1], the target named is T1, human dopamine D3 receptor (Homo sapiens, UniProt P35462).
T1 construct: expressed in transfected cells; host or cells: HEK-293 EBNA cells, transient transfection; membrane preparation
Description: Radioligand binding ([3H]-spiperone) to membranes of HEK-293 EBNA cells expressing human D3 receptor. Particulars: human D3, 0.5 nM [3H]-spiperone, HEK-293 EBNA membranes, 1 h at RT. As for the experimental part:
(§1) The ability of the compounds to bind to the 5-HT2A, D3 and D2 receptors was determined using radioligand binding to cloned receptors selectively expressed in HEK-293 EBNA cells.
(§2) Membrane Preparation for Human D2, Human D3 and Human 5-HT2A Receptors
(§3) HEK-293 EBNA cells were transiently transfected with expression plasmids encoding for the human D2 or D3 dopamine- or for the human 5-HT2A serotonin receptor, respectively. The cells were harvested 48 h post-transfection, washed three times with cold PBS and stored at −80° C. prior to use. The pellet was suspended in cold 50 mM Tris-HCl buffer containing 10 mM EDTA (pH 7.4) and homogenized with a Polytron (Kinematica AG, Basel, Switzerland) for 20-30 sec at 12.000 rpm. After centrifugation at 48.000×g for 30 min at 4° C., the pellet was resuspended in cold 10 mM Tris-HCl buffer containing 0.1 mM EDTA (pH 7.4), homogenized, and centrifuged as above. This pellet was further resuspended in a smaller volume of ice cold 10 mM Tris-HCl buffer containing 0.1 mM EDTA (pH 7.4) and homogenized with a Polytron for 20-30 sec at 12.000 rpm. The protein content of this homogenate was determined with the Bio-Rad (Bradford) Protein Assay (Biorad Laboratories GmbH, München, Germany) according to the instructions of the manufacturer using gamma globulin as the standard. This homogenate was stored at −80° C. in aliquots and thawed immediately prior to use.
(§4) Radioligand Binding Assay Conditions
(§5) Aliquots of membrane preparations were thawed at RT, resupended in assay buffer (D2, D3: 50 mM Tris-HCl, 120 mM NaCl, 5 mM MgCl2, 1 mM EDTA, 5 mM KCl, 1.5 mM CaCl2, pH=7.4; 5-HT2A: 50 mM Tris-HCl, 10 mM MgCl2, 1 mM EGTA, pH=7.4), homogenized with a Polytron for 20-30 sec at 12.000 rpm and adjusted to a final concentration of approximately 7.5 μg protein/well (D2, D3) and 15 μg protein/well (5-HT2A), respectively.
(§6) The binding affinity (Ki) of the compounds was determined using radioligand binding. Membranes were incubated in a total volume of 200 μl with a fixed concentration of radioligand (final concentration approximately 0.7 nM [^3H]-spiperone for D2, 0.5 nM [^3H]-spiperone for D3, and 1.1 nM [^3H]-ketanserin for 5-HT2A) and ten concentrations of test compound in ranging between 10 μM-0.1 nM for 1 h at RT. At the end of the incubation, the reaction mixtures were filtered on to unifilter 96-well white microplates with bonded GF/C filters (Packard BioScience, Zurich, Switzerland; preincubated for 1 h in 0.1% polyethylenimine (PEI) in assay buffer) with a Filtermate 196 harvester (Packard BioScience) and washed 3 times with cold assay buffer. The nonspecific binding was determined with equally composed reaction mixtures in the presence of 10 μM unlabelled spiperone. Per well 45 μl of Microscint 40 (Perkin Elmer, Schwerzenbach, Switzerland) was added, plates for sealed, shaken for 20 min and counted for 3 min on a Topcount Microplate Scintillation Counter (Canberra Packard SA, Zurich, Switzerland) with quenching correction.
(§7) The CPM value for each duplicate of a concentration of competing compound was averaged (y1), then the % specific binding was calculated according to the equation (((y1−non-specific)/(total binding-non-specific))×100). Graphs were plotted with the % specific binding using XLfit, a curve fitting program that iteratively plots the data using Levenburg Marquardt algorithm. The single site competition analysis equation used was y=A+((B−A)/(1+((x/C)^D))), where y is the % specific binding, A is the minimum y, B is the maximum y, C is the IC50, x is the log10 of the concentration of the competing compound and D is the slope of the curve (the Hill Coefficient). From these curves the IC50 (inhibition concentration at which 50% specific binding of the radioligand was displaced) and Hill coefficient were determined. […]

For assay [2], the target named is T2, human serotonin 5-HT2A receptor (Homo sapiens, UniProt P28223).
T2 construct: expressed in transfected cells; host or cells: HEK-293 EBNA cells, transient transfection; membrane preparation
Description: Radioligand binding ([3H]-ketanserin) to membranes of HEK-293 EBNA cells expressing human 5-HT2A receptor. Particulars: 1.1 nM [3H]-ketanserin, HEK-293 EBNA membranes, 1 h at RT. As for the experimental part: as §1, §2, §3, §4, §5, §6, §7

In assay [3] the target is T3, human dopamine D2 receptor (Homo sapiens, UniProt P14416).
T3 construct: expressed in transfected cells; host or cells: HEK-293 EBNA cells, transient transfection; membrane preparation
In words: Radioligand binding ([3H]-spiperone) to membranes of HEK-293 EBNA cells expressing human D2 receptor. Particulars: human D2, 0.7 nM [3H]-spiperone, HEK-293 EBNA membranes, 1 h at RT. As for the experimental part:
as §1, §2, §3, §4, §5, §6, §7

Broadly, the Ki is the dissociation constant of the complex between target and ligand, obtained from inhibition or displacement.

T1 sequence (P35462 whole entry): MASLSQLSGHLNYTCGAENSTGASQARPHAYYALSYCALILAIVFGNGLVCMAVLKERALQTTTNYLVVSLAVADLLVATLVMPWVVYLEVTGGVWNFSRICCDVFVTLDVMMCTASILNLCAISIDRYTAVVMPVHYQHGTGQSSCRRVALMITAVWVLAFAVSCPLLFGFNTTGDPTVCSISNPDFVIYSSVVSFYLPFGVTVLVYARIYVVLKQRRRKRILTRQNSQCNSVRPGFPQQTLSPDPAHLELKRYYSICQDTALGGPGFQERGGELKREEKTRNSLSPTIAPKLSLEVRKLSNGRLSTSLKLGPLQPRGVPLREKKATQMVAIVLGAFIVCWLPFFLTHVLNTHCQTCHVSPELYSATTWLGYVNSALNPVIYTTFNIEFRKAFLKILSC
T2 sequence (P28223 whole entry): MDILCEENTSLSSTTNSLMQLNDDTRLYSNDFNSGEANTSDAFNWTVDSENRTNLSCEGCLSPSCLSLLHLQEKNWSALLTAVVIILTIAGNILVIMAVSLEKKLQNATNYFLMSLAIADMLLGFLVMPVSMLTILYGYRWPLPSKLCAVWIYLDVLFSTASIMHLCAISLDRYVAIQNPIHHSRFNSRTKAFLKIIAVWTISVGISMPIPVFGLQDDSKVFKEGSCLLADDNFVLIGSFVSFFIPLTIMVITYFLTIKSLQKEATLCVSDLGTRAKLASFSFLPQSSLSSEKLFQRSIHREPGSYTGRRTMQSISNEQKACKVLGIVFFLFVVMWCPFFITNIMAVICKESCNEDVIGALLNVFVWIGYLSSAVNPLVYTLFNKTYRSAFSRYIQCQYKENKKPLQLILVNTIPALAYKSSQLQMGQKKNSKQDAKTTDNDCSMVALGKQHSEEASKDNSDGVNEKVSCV
T3 sequence (P14416 whole entry): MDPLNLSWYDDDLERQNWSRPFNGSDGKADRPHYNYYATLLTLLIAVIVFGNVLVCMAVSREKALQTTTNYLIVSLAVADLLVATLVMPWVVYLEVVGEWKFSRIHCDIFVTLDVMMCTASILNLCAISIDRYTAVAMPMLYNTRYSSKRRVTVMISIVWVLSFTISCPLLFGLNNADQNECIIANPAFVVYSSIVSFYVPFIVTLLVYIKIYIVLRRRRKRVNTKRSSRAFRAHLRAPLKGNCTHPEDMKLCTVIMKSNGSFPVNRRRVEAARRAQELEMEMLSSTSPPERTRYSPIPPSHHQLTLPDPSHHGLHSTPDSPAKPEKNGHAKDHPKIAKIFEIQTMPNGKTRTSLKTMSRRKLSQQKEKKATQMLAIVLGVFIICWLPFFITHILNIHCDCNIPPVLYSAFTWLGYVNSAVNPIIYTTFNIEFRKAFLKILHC

In the case of `COCCC(=O)N[C@H]1CC[C@H](CCN2CCN(c3noc4cc(Cl)c(F)cc34)CC2)CC1` [Example 71, N-trans-(4-{2-[4-(6-Chloro-5-fluoro-benzo[d]isoxazol-3-yl)-piperazin-1-yl]-ethyl}-cyclohexyl)-3-methoxy-propionamide], the values for the Ki in assay [1], in assay [2] and in assay [3] were 20.1 nM, 89.2 nM and 1430 nM, respectively.
Consider `Cc1cc2c(N3CCN(CC[C@H]4CC[C@H](NC(=O)CC5CCCO5)CC4)CC3)noc2cc1F` (stereo partly drawn) [Example 118, N-trans-(4-{2-[4-(6-Fluoro-5-methyl-benzo[d]isoxazol-3-yl)-piperazin-1-yl]-ethyl}-cyclohexyl)-2-(tetrahydro-furan-2-yl)-acetamide], for which the Ki worked out at 22 nM in assay [1], 21 nM in assay [2] and 1070 nM in assay [3].
For `O=C(CC1OCCCO1)N[C@H]1CC[C@H](CCN2CCN(c3noc4cc(F)c(Cl)cc34)CC2)CC1` [Example 77, N-trans-(4-{2-[4-(5-Chloro-6-fluoro-benzo[d]isoxazol-3-yl)-piperazin-1-yl]-ethyl}-cyclohexyl)-2-[1,3]dioxan-2-yl-acetamide] the same measures were 6.06 nM, 2.26 nM and 2300 nM.
For `CO[C@H]1CC[C@H](CC(=O)N[C@H]2CC[C@H](CCN3CCN(c4noc5cc(Cl)c(Cl)cc45)CC3)CC2)CC1` [Example 96, N-trans-(4-{2-[4-(5,6-Dichloro-benzo[d]isoxazol-3-yl)-piperazin-1-yl]-ethyl}-cyclohexyl)-2-trans-(4-methoxy-cyclohexyl)-acetamide] the same measures were 35.4 nM, 51.4 nM and 11600 nM.
For `O=C(CC1CCOCC1)N[C@H]1CC[C@H](CCN2CCN(c3noc4cc(Cl)c(F)cc34)CC2)CC1` [Example 72, N-trans-(4-{2-[4-(6-Chloro-5-fluoro-benzo[d]isoxazol-3-yl)-piperazin-1-yl]-ethyl}-cyclohexyl)-2-(tetrahydro-pyran-4-yl)-acetamide] the same measures were 24.3 nM, 36.6 nM and 11300 nM.
With `COC[C@H]1C[C@H](CC(=O)N[C@H]2CC[C@H](CCN3CCN(c4noc5cc(Cl)ccc45)CC3)CC2)C1` [Example 48, N-trans-(4-{2-[4-(6-Chloro-benzo[d]isoxazol-3-yl)-piperazin-1-yl]-ethyl}-cyclohexyl)-2-trans-(3-methoxymethyl-cyclobutyl)-acetamide], the Ki in assay [1] came out at 9.96 nM; in assay [2] it was 3.77 nM; in assay [3], 706 nM.
`CC(C)(O)CC(=O)N[C@H]1CC[C@H](CCN2CCN(c3noc4cc(Cl)ccc34)CC2)CC1` [Example 44, N-trans-(4-{2-[4-(6-Chloro-benzo[d]isoxazol-3-yl)-piperazin-l-yl]-ethyl}-cyclohexyl)-3-hydroxy-3-methyl-butyramide]: the Ki in assay [1] amounted to 10.1 nM; in assay [2], 6.59 nM; in assay [3], 325 nM.
For `O=C(CC1(O)CCOCC1)N[C@H]1CC[C@H](CCN2CCN(c3noc4cc(F)c(F)cc34)CC2)CC1` [Example 61, N-trans-(4-{2-[4-(5,6-Difluoro-benzo[d]isoxazol-3-yl)-piperazin-1-yl]-ethyl}-cyclohexyl)-2-(4-hydroxy-tetrahydro-pyran-4-yl)-acetamide] the same measures were 10.1 nM, 8.45 nM and 811 nM.
For `Cc1cc2c(N3CCN(CC[C@H]4CC[C@H](NC(=O)CC5COCCO5)CC4)CC3)noc2cc1F` (stereo partly drawn) [Example 113, 2-[1,4]Dioxan-2-yl-N-trans-(4-{2-[4-(6-fluoro-5-methyl-benzo[d]isoxazol-3-yl)-piperazin-1-yl]-ethyl}-cyclohexyl)-acetamide] the same measures were 25 nM, 14 nM and over 10500 nM.
For `COC(CCC(=O)N[C@H]1CC[C@H](CCN2CCN(c3noc4ccc(F)cc34)CC2)CC1)OC` [Example 28, N-trans-(4-{2-[4-(5-Fluoro-benzo[d]isoxazol-3-yl)-piperazin-1-yl]-ethyl}-cyclohexyl)-4,4-dimethoxy-butyramide] the same measures were 8.78 nM, 22.8 nM and 918 nM.
Regarding `Cc1ccc2c(N3CCN(CC[C@H]4CC[C@H](NC(=O)CC5COCCO5)CC4)CC3)noc2c1` (stereo partly drawn) [Example 102, 2-[1,4]Dioxan-2-yl-N-trans-(4-{2-[4-(6-methyl-benzo[d]isoxazol-3-yl)-piperazin-1-yl]-ethyl}-cyclohexyl)-acetamide], the Ki in assay [1] is 13.9 nM; in assay [2] it was 2.65 nM; in assay [3] it was 333 nM.
For `CC1(C)CC(CC(=O)N[C@H]2CC[C@H](CCN3CCN(c4noc5ccc(F)cc45)CC3)CC2)CCO1` (mixture of isomers) [Example 18, Rac-2-(2,2-Dimethyl-tetrahydro-pyran-4-yl)-N-trans-(4-{2-[4-(5-fluoro-benzo[d]isoxazol-3-yl)-piperazin-1-yl]-ethyl}-cyclohexyl)-acetamide] the same measures were 12.1 nM, 25.2 nM and 891 nM.
With `CO[C@H]1CC[C@H](CC(=O)N[C@H]2CC[C@H](CCN3CCN(c4noc5ccc(F)cc45)CC3)CC2)CC1` [Example 6, N-trans-(4-{2-[4-(5-Fluoro-benzo[d]isoxazol-3-yl)-piperazin-1-yl]-ethyl}-cyclohexyl)-2-trans-(4-methoxy-cyclohexyl)-acetamide], the Ki in assay [1] is 6.44 nM; in assay [2], 26.3 nM; in assay [3], 11800 nM.
On to `O=C(CC1CCOCC1)N[C@H]1CC[C@H](CCN2CCN(c3noc4cc(F)c(F)cc34)CC2)CC1` [Example 63, N-trans-(4-{2-[4-(5,6-Difluoro-benzo[d]isoxazol-3-yl)-piperazin-1-yl]-ethyl}-cyclohexyl)-2-(tetrahydro-pyran-4-yl)-acetamide], for which the Ki stood at 7.13 nM in assay [1], 6.88 nM in assay [2] and 9710 nM in assay [3].
For `O=C(CC1CCOCC1)N[C@H]1CC[C@H](CCN2CCN(c3noc4cc(Cl)c(Cl)cc34)CC2)CC1` [Example 97, N-trans-(4-{2-[4-(5,6-Dichloro-benzo[d]isoxazol-3-yl)-piperazin-1-yl]-ethyl}-cyclohexyl)-2-(tetrahydro-pyran-4-yl)-acetamide] the same measures were 9.45 nM, 30.7 nM and 11600 nM.
Turning to `CO[C@@H]1CC[C@@H](CC(=O)N[C@H]2CC[C@H](CCN3CCN(c4noc5ccccc45)CC3)CC2)C1` (relative stereo) [Example 3, N-trans-{4-[2-(4-Benzo[d]isoxazol-3-yl-piperazin-1-yl)-ethyl]-cyclohexyl]-2-trans-(3-methoxy-cyclopentyl)-acetamide], the Ki turned out to be 13.9 nM in assay [1], 482 nM in assay [2] and 355 nM in assay [3].
For `COC1CCC(C(=O)N[C@H]2CC[C@H](CCN3CCN(c4noc5cc(F)c(F)cc45)CC3)CC2)CC1` (stereo partly drawn) [Example 66, 4-Methoxy-cyclohexanecarboxylic acid N-trans(4-{2-[4-(5,6-difluoro-benzo[d]isoxazol-3-yl)-piperazin-1-yl]-ethyl}-cyclohexyl)-amide] the same measures were 26.3 nM, 6.94 nM and 2930 nM.

The record behind these values is patent US7858630B2, “D3 and 5-HT2A receptor modulators” (Hoffmann-La Roche Inc., priority 2008, dated 2010).
